In paper PMC6974622, “DeepMalaria: Artificial Intelligence Driven Discovery of Potent Antiplasmodials” (Frontiers in Pharmacology, 2020):
“Also recorded” adds a separate entry of the source. Read-outs that look alike come from different tables or passages of the source.

How the values were obtained:
[1] = tested on: multidrug resistant P. falciparum strain Dd2; experiment: SYBR Green I Plasmodium growth inhibition assay (fixed concentration screen and EC50); format: cell-based, Plasmodium falciparum; settings: for DD2: test dataset (macrocyclic library), class label, 1 µM; for inhibition at 1 µM: Pf Dd2, 1 µM, 72 h, read-out: Inhibition One-point (%)
Protocol: P. falciparum cultures were maintained under standard culture conditions in RPMI 1640 medium supplemented with 25 mM HEPES, pH 7.4, 26 mM NaHCO3, 2% dextrose, 15 mg/L hypoxanthine, 25 mg/L gentamycin, and 0.5% Albumax II maintained at 37°C in 5% CO2 and 95% air. Initially, a fixed concentration phenotypic screening was performed against multidrug resistant P. falciparum strain Dd2 (resistant to chloroquine, pyrimethamine, and mefloquine) using a SYBR Green I assay ([Johnson et al., 2007]; [Vossen et al., 2010]). An EVO-150 robotic liquid handler (Tecan, Morrisville, NC) was used to aliquot compounds at a final concentration of 1 µM followed by addition of culture to 96-well plates (Greiner, Monroe, NC) at 1% parasitemia, 2% hematocrit. Plates were incubated for 72 h at 37°C in a humidified atmosphere 5% CO2/95% air prior to freezing. Plates were subsequently thawed and 1X SYBR Green I was added with lysis buffer (20 mM Tris-HCl, 0.08% saponin, 5 mM EDTA, 0.8% Triton X-100). After incubation at room temperature in dark for 1 h, the fluorescent emission was measured at excition and emission wavelengths of 485 nm and 530 nm, respectively, using a BioTek Synergy neo2 (Winooski, VT) plate reader. […] Curve fitting was performed using GraphPad Prism and EC50 value was determined for each compound.

[2] = tested on: Pf (DD2); experiment: Validation dataset: previously performed HTS at University of Central Florida, Chakrabarti Laboratory; format: cell-based, Plasmodium falciparum; settings: class label
Protocol: The validation dataset consists of the results from previously performed HTS in University of Central Florida at the Chakrabarti Laboratory, consisting of natural-products, kinase inhibitors from commercial vendors Asinex (Winston-Salem, NC)and ChemDiv (San Diego, CA) libraries. This dataset contains 4,497 molecules and their inhibition property. […] Using this external validation dataset, the realistic capabilities of the model are evaluated in the validation process. The raw data supporting the conclusions of this manuscript will be made available by the authors, without any restriction, to any qualified researcher (Supplementary Material 4).

[3] = tested on: human hepatoma cell line HepG2; experiment: MTS based cytotoxicity assay (counter-screen for selectivity); format: cell-based; settings: 48 h
Protocol: Selectivity was determined by counter-screening against human hepatoma cell line HepG2 in a MTS (3-(4,5-Dimethylthiazol-2-yl)-5-(3-carboxymethoxyphenyl)-2-(4-sulfophenyl)-2H-tetrazolium) based cytotoxicity assay (CellTiter 96® Aqueous One, Promega, Madison, WI) ([Riss et al., 2004]). Briefly, microtiter plates were seeded with 1,500 cells per well in a 384 well plate and incubated for 24 h at 37°C in 5% CO2/95% air atmosphere. The next day, compounds were added at seven different serially diluted concentrations starting at 25 µM d incubated for additional 48 h at stated conditions. MTS solution was next added to each well, incubated for additional 3 h at 37°C, and absorbance was read at 490 nm using BioTek Synergy neo 2 plate reader. Untreated cells served as control. Curve fitting was performed using GraphPad Prism and EC50 value was determined.

[4] = tested on: P. falciparum Dd2; experiment: Stage-specific activity assay (Giemsa smears, YOYO-1 flow cytometry); format: cell-based, Plasmodium falciparum; settings: synchronized Dd2, compound at 3X EC50 added at 6, 18, 30, 42 hpi
Protocol: P. falciparum Dd2 cell line was synchronized using a combination of 5% sorbitol and magnetic column separation as described ([Roberts et al., 2016]). Cultures at 2% parasitemia and 2% hematocrit were added to microtiter plate wells and measurements began 6 h post-invasion (6 hpi). Hit compounds were added at 3X EC50 concentration at specified time points. Controls are DHA (3X EC50) and untreated cultures. Giemsa-stained thin smears were made for each time point and an aliquot of the culture was fixed for flow cytometric analysis using 0.04% glutaraldehyde in PBS. After fixing and aspirating, cells were permeabilized with 0.25% Triton-100 followed by treatment with RNase (0.05 mg/ml) for 3 h. Next, YOYO 1 (10.24 µM) fluorescent dye was added and samples were analyzed ([Bouillon et al., 2013]) using Beckman Coulter (Indianapolis, IN) CytoFlex S flowcytometer.

[5] = tested on: Pf Dd2; experiment: Rate of killing determination; format: cell-based, Plasmodium falciparum; settings: synchronized Dd2, exposure 6 or 12 h, parasitemia tracked for 6 days
Protocol: Pf Dd2 culture was synchronized as described ([Roberts et al., 2016]), plated into 24 well plates at 2% parasitemia and 2% hematocrit at 6 hpi. […] Each well was exposed to the inhibitor for either 6 or 12 h using dihydroartemisinin (DHA) (25 µM) and untreated culture as controls. After washing the compounds off, the media was changed twice a day. The parasitemia was tracked for 6 days after addition of compounds. Thin smears were stained with Giemsa, and parasitemia was counted using microscope.

[6] = tested on: 3D7; design: unit not given here; settings: cited from earlier work
[7] = repurposing dataset, 179 approved drugs, ref https://www.nature.com/articles/nchembio806

Compound: CC(=O)N1CCCN(Cc2ccccc2)CCN(C(=O)c2ccccc2F)Cc2cc(F)c(F)cc21
- DD2 [1]: 0 (zero if otherwise)

Compound: COc1ccc(-c2nc3n(n2)C(c2cccnc2)C2=C(CC(C)(C)CC2=O)N3)cc1 (stereo not drawn)
- DD2 [2]: 0 (zero if otherwise)

Compound: C=CCN1C(=O)COc2ccc(NC(=O)c3oc4cc(C)ccc4c3C)cc21
- DD2 [2]: 0 (zero if otherwise)

Compound: C=CCOC(=O)C1=C(C)NC(=S)NC1c1ccc(C(C)(C)C)cc1 (stereo not drawn)
- DD2 [2]: 0 (zero if otherwise)

Compound: C[C@H]1C(=O)NCCOc2ccccc2C(=O)N[C@H](C(=O)NCCCc2ccccc2)CCC(=O)N1C
- DD2 [1]: 0 (zero if otherwise)

Compound: Cc1noc(C2CCCN2C(=O)CN2CCC3(CCCCc4ccccc4OCCCNC3=O)CC2)n1 (stereo not drawn)
- DD2 [1]: 0 (zero if otherwise)

Compound: Cn1cnnc1C1CCCCN1C(=O)CN1CCC2(CCCCc3ccccc3OCCCNC2=O)CC1 (stereo not drawn)
- DD2 [1]: 0 (zero if otherwise)

Compound: Cc1cc(C)n(Cc2c(C(=O)N3CCC4(CCCCOC[C@@H]5CCCN5C(=O)c5cccc(c5)OC4)CC3)noc2C)n1 [DC-5921, CC1=NN(CC2=C(C)ON=C2C(=O)N2CCC3(CC2)CCCCOC[C@@H]2CCCN2C(=O)C2=CC(OC3)=CC=C2)C(C)=C1]
- EC50 [3]: > 25 µM
- Stage specific activity [4]: active in early stages, late Troph and early schizont; also recorded: inhibit the early stages
- inhibition at 1 µM ([1]; Plasmodium falciparum): 90%
- EC50 ([1]; Plasmodium falciparum, Pf Dd2, 72 h, spread given in nM): 0.9 nM

Compound: CCc1nc2ccccc2c(C(=O)N2CCC3(CCCCOCCNC(=O)c4ccccc4OC3)CC2)c1C [DC-5931, CCC1=NC2=C(C=CC=C2)C(C(=O)N2CCC3(CC2)CCCCOCCNC(=O)C2=C(OC3)C=CC=C2)=C1C]
- EC50 [3]: > 25 µM
- Stage specific activity [4]: mostly active in early stages; also recorded: inhibit the early stages
- inhibition at 1 µM ([1]; Plasmodium falciparum): 80%

Compound: CN1CCOc2ccccc2CCCCCC2(CCN(C(=O)[C@@H](N)c3ccccc3)CC2)C1=O [DC-9235, CN1CCOC2=C(CCCCCC3(CCN(CC3)C(=O)[C@@H](N)C3=CC=CC=C3)C1=O)C=CC=C2]
- EC50 [3]: > 25 µM
- inhibition at 1 µM ([1]; Plasmodium falciparum): 92%

Compound: CC(C)C[C@@H](N)C(=O)N1CCC2(CCCCCc3ccccc3OCCN(C)C2=O)CC1 [DC-9236, CC(C)C[C@@H](N)C(=O)N1CCC2(CC1)CCCCCC1=C(OCCN(C)C2=O)C=CC=C1]
- Rate of killing [5]: higher elimination in the second life cycle; also recorded: inhibition in the second developmental cycle of Pf causing delayed death
- EC50 [3]: 6.5 µM
- Stage specific activity [4]: active in late Troph and early Schizont; also recorded: inhibits primarily the mature schizonts
- inhibition at 1 µM ([1]; Plasmodium falciparum): 98%

Compound: CCC1C2=NC(Cc3ccccc3)=C(O2)N(Cc2ccccc2)Cc2cn(nn2)CCCCN1Cc1ccccc1OCCN(C)C (stereo not drawn) [DC-9237, CCC1N(CC2=CC=CC=C2OCCN(C)C)CCCCN2C=C(CN(CC3=CC=CC=C3)C3=C(CC4=CC=CC=C4)N=C1O3)N=N2]
- Rate of killing [5]: fast-acting; also recorded: inhibited growth at all asexual stages after 6 h of exposure and parasite population did not resume growth even after 6 days
- EC50 [3]: 17 µM
- Stage specific activity [4]: inhibits all asexual stages of Plasmodium falciparum; also recorded: inhibits all asexual blood stages of Dd2 including the early ring stage
- inhibition at 1 µM ([1]; Plasmodium falciparum): 95%

Compound: CN1CCOc2ccccc2CCCCCC2(CCN(C(=O)[C@H](N)c3ccccc3)CC2)C1=O [DC-9239, CN1CCOC2=C(CCCCCC3(CCN(CC3)C(=O)[C@H](N)C3=CC=CC=C3)C1=O)C=CC=C2]
- EC50 [3]: 24.2 µM
- inhibition at 1 µM ([1]; Plasmodium falciparum): 79%

Compound: O=C1NC(=S)S/C1=C\c1ccc(O)cc1 [O=C1NC(=S)S/C1=C\c1ccc(O)cc1]
- DD2 [2]: 0 (zero if otherwise)

Compound: CCC(C)C(C(=O)OCC[N+](C)(CC)CC)c1ccccc1 (stereo not drawn) [Valethamate]
- 3D7 [6, 7]: 79.9

Compound: COc1ccc(CCN(C)CCCC(C#N)(c2ccc(OC)c(OC)c2)C(C)C)cc1OC (stereo not drawn) [Verapamil]
- 3D7 [6, 7]: 98

Compound: C=Cc1c(C)c2cc3nc(cc4[nH]c(cc5nc(cc1[nH]2)C(C)=C5CCC(=O)O)c(CCC(=O)OC)c4C)[C@@]1(C)C3=CC=C(C(=O)OC)[C@H]1C(=O)OC [Verteporfin]
- 3D7 [6, 7]: 95.4

Compound: CC[C@]1(O)C[C@@H]2CN(CCc3c([nH]c4ccccc34)[C@@](C(=O)OC)(c3cc4c(cc3OC)N(C)[C@H]3[C@@](O)(C(=O)OC)[C@H](OC(C)=O)[C@]5(CC)C=CCN6CC[C@]43[C@@H]65)C2)C1 [Vinblastine]
- 3D7 [6, 7]: 66.7

Compound: CC[C@]1(O)C[C@H]2CN(CCc3c([nH]c4ccccc34)[C@@](C(=O)OC)(c3cc4c(cc3OC)N(C=O)[C@H]3[C@@](O)(C(=O)OC)[C@H](OC(C)=O)[C@]5(CC)C=CCN6CC[C@]43[C@@H]65)C2)C1 [Vincristine]
- 3D7 [6, 7]: 69.5

Compound: CC[C@]1(O)C[C@@H]2CN(CCc3c([nH]c4ccccc34)[C@@](C(=O)OC)(c3cc4c(cc3OC)N(C)[C@H]3[C@@](O)(C(N)=O)[C@H](O)[C@]5(CC)C=CCN6CC[C@]43[C@@H]65)C2)C1 [Vindesine]
- 3D7 [6]: 81.9

Compound: CCC1=C[C@@H]2CN(C1)Cc1c([nH]c3ccccc13)[C@@](C(=O)OC)(c1cc3c(cc1OC)N(C)[C@H]1[C@@](O)(C(=O)OC)[C@H](OC(C)=O)[C@]4(CC)C=CCN5CC[C@]31[C@@H]54)C2 [Vinorelbine]
- 3D7 [6, 7]: 97.7

Compound: Atovaquone
- 3D7 [6, 7]: 97

Compound: Brilliant green
- 3D7 [6, 7]: 93.5

Compound: Carboplatin
- 3D7 [6, 7]: 76.4

Compound: Corticotropin A
- 3D7 [6, 7]: 86.4

Compound: Doxycycline
- 3D7 [6, 7]: 59.7

Compound: Gramicidin A
- 3D7 [6, 7]: 98.5

Compound: Heparin
- 3D7 [6, 7]: 79.9

Compound: Meclocycline
- 3D7 [6, 7]: 68.7

Compound: Phenylmercuric acetate
- 3D7 [6]: 97.7

Compound: Plicamycin
- 3D7 [6, 7]: 98.2

Compound: Tolonium chloride
- 3D7 [6]: 99.5
